One data set deals with mouche domestique. Nature of the data set: Knock-down activity on housefly, direct spray in Kearns and March cylinder. The following applies: acetone (5%) + Isopar L. Format: in vivo. Here is the method:
Exemple 4 : Etude de l'activité de choc sur mouche domestique.
Les insectes tests sont des mouches domestiques femelles âgées de 4 à 5 jours. On opère par pulvérisation directe en cylindre de Kearns et March en utilisant comme solvant un mélange d'acétone (5%) et d'Isopar L (solvant pétrolier) (quantité de solvant utilisée 2 ml en une seconde). On utilise 50 insectes par dose. On effectue les contrôles toutes les minutes jusqu'à 10 minutes, puis à 15 minutes et l'on détermine le KT 50 par les méthodes habituelles.

The next data set relates to moustiques Culex pipiens. Nature of the data set: Insecticidal activity on Culex pipiens mosquitoes, fumigant coil. The class given is in vivo. Particulars: fumigant coil, 0,60% active ingredient by weight of coil. Here is the method: Exemple 6 : Etude de l'activité insecticide. sur moustiques Culex pipiens, du composé ce l'exemple 1 utilisé sous forme de serpentin fumigène.
Des supports neutres de serpentins fumigènes sont imprégnés de matière active en solution dans l'acétone. On lâche dans un cylindre fermé, en verre, de 13,50 dm3, 20 moustiques femelles agées de 4 à 5 jours et intrcduit, pendant 2 minutes, un serpentin fumigène se consumant à une extrémité. On effectue le contrôle de knock-down toutes les minutes et arrête 1.essai 5 minutes après que tous les insectes aient été abattus.

`C=CCC1=C(C)[C@@H](OC(=O)[C@@H]2[C@H](/C=C\C(=O)OC)C2(C)C)CC1=O` [Exemple 1, (R cis ΔZ) 2,2-diméthl-3/ 3-méthoxy-oxo-1-propenyl/cyclopropane carboxylatede (1S) 2-méthyl-4-oxo 3-(2-propenyl)-2-cyclopenten-1-yle]: the “KT 50” value is 1,26 mn in the data set on mouche domestique (concentration 0,5 g/litre) and 2,02 mn in the data set with mouche domestique (concentration 0,25 g/litre). Also, in the data set on moustiques Culex pipiens, the “effet létal” value is 98,3%. For the same compound, in the data set with moustiques Culex pipiens (20 female mosquitoes, 13,50 dm3 cylinder), the “ET 50” value is 5,42 mn.

For the origin of these results see EP0041021A2, “Cyclopropane carboxylic acid derivatives, their preparation, their use against parasites in plants and animals, their compositions and their intermediates” (ROUSSEL-UCLAF, priority 1980, dated 1981).
